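Following 48 hours of exposure in 96-well plates, responses at five concentrations were used to interpolate endpoints linearly. Abbreviation: GI50, concentration required for 50% inhibition of growth. At the TGI there is no net growth.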
Assays:
Test in all cases: inhibition of tumour cell growth, NCI panel, 48 h
SF-539 CNS = system: SF-539 CNS
CCRF-CEM leukemia = system: CCRF-CEM leukemia
SK-MEL-5 melanoma = system: SK-MEL-5 melanoma
HCC-2998 colon = system: HCC-2998 colon
SK-MEL-2 melanoma = system: SK-MEL-2 melanoma
TK-10 renal = system: TK-10 renal
OVCAR-4 ovarian = system: OVCAR-4 ovarian
OVCAR-5 ovarian = system: OVCAR-5 ovarian
HOP-62 NSCLC = system: HOP-62 NSCLC
A498 renal = system: A498 renal

| SMILES | TGI (SF-539 CNS) [µM] | TGI (CCRF-CEM leukemia) [µM] | TGI (SK-MEL-5 melanoma) [µM] | TGI (HCC-2998 colon) [µM] | TGI (SK-MEL-2 melanoma) [µM] | TGI (TK-10 renal) [µM] | TGI (OVCAR-4 ovarian) [µM] | TGI (OVCAR-5 ovarian) [µM] | TGI (HOP-62 NSCLC) [µM] | TGI (A498 renal) [µM] | GI50 (SF-539 CNS) [µM] | GI50 (CCRF-CEM leukemia) [µM] | GI50 (SK-MEL-5 melanoma) [µM] | GI50 (HCC-2998 colon) [µM] | GI50 (SK-MEL-2 melanoma) [µM] | GI50 (TK-10 renal) [µM] | GI50 (HOP-62 NSCLC) [µM] | GI50 (OVCAR-4 ovarian) [µM] | GI50 (OVCAR-5 ovarian) [µM] | GI50 (A498 renal) [µM] |
| --- | --- | --- | --- | --- | --- | --- | --- | --- | --- | --- | --- | --- | --- | --- | --- | --- | --- | --- | --- | --- |
| COC(=O)C(=O)C(C(=O)C(=O)Nc1cc(C)ccc1C)c1nc2ccc(C(=O)c3ccccc3)cc2[nH]c1=O (stereo unspecified) | > 100 | > 100 | > 100 | > 100 | > 100 | > 100 | > 100 | > 100 |  |  |  |  |  |  |  |  |  |  |  |  |
| [O-]c1c2c(nn1-c1ccc(Cl)cc1)c1ccccc1c[n+]2Cc1ccccc1 | > 100 | > 100 | > 100 | > 100 | > 100 | > 100 | > 100 | > 100 | > 100 |  |  |  |  |  |  |  |  |  |  |  |
| CCOCc1cc(=O)c2c(OC)cc3c(c2o1)CCC(C)(C)O3 | > 100 | > 100 | > 100 | > 100 | > 100 | > 100 | > 100 | > 100 | > 100 |  |  |  |  |  |  |  |  |  |  |  |
| CCCCN(CCCC)CCCn1cnc2ncccc2c1=O | > 100 | > 100 | > 100 | > 100 | > 100 | > 100 | > 100 | > 100 | > 100 |  |  |  |  |  |  |  |  |  |  |  |
| O=C(O)CCC(C(=O)O)N1C(=O)C2C3CCC(C3)C2C1=O (stereo unspecified) | > 100 |  | > 100 |  | > 100 | > 100 | > 100 | > 100 | > 100 | > 100 |  |  |  |  |  |  |  |  |  |  |
| [CH3][Sn]([CH3])([CH3])[O][N+](=O)[O-] | 9.58 | 6.9 | 2.97 | > 10 | > 10 | > 10 | 5.53 | > 10 | > 10 |  | 2.48 | 2.19 | 1.52 | > 10 | 5.1 | > 10 | 6.41 | 2.66 | 6.73 |  |
| COc1ccc(CCc2cc(OC)c(O)c(OC)c2)cc1 | > 100 | > 100 | > 100 | > 100 | > 100 |  | > 100 | > 100 | > 100 |  |  |  |  |  |  |  |  |  |  |  |
| CCCCCCCC(=O)[O][Hg][CH2]C1COC([CH2][Hg][O]C(=O)CCCCCCC)CO1 (stereo unspecified) | 37.4 | > 100 | 28.8 | 33.1 |  | 33.7 |  | 34.3 | 30.9 |  | 17.5 | 1.91 | 11 | 18 |  | 19.6 | 17.2 |  | 20.1 |  |
| COc1cc(/C=C2/C(=O)N(C(=O)OCc3ccccc3)C(Cc3cc(OC)c(OC)c(C)c3OC)C(=O)N2Cc2ccccc2)c(OC)c(C)c1OC (stereo unspecified) | > 100 |  | 65.9 | > 100 | > 100 | > 100 | > 100 | > 100 | > 100 | > 100 |  |  |  |  |  |  |  |  |  |  |
| Cc1ccc(NC(=O)OCC(COc2ccc(Cl)cc2Cl)OC(=O)Nc2ccc(C)cc2)cc1 (stereo unspecified) | > 100 |  |  | > 100 | > 100 |  | > 100 | > 100 | > 100 | > 100 |  |  |  |  |  |  |  |  |  |  |
| COc1cc(/C=C2\C[C@H]3[C@@H]4CC=C5C[C@@H](OC(C)=O)CC[C@]5(C)[C@H]4CC[C@]3(C)[C@H]2OC(C)=O)ccc1OCCN1CCCC1 | 17.3 | 18.8 | 15.1 | 15.4 | > 50 | 19.7 |  | 20.1 | 20.5 |  | 8.7 | 0.935 | 6.97 | 8.01 | 20.2 | 9.07 | 9.43 |  | 10 |  |
| CSc1ccc(C(=O)/C=C/c2ccccc2Cl)cc1 | 33.1 | > 100 | 31.6 | 28.7 | 37.7 | 41.5 | 66 | 31.6 | 35.4 |  | 16.5 | 19.6 | 16.7 | 13.1 | 16.2 | 18.4 | 17.4 | 25.7 | 16.1 |  |
| CC1=C([Se]CC(OC(=O)[C@@H](CO)NC(=O)OC(C)(C)C)C(=O)NCCCCCC(=O)OCc2ccccc2)C(=O)c2ccccc2C1=O (stereo partly specified) | 3.09 |  | 2.96 | 3.48 | 4.08 | 3.47 | 2.86 | 3.65 | 1.75 | 5.93 | 1.7 |  | 1.59 | 1.98 | 2.26 | 2.04 | 0.414 | 1.53 | 2.09 | 2.02 |
| COc1ccc2c(c1OC(C)=O)C1=CC(=O)CCC13CCNC3C2 (stereo unspecified) |  | > 100 | > 100 | > 100 | > 100 | > 100 | > 100 | > 100 | > 100 |  |  |  |  |  |  |  |  |  |  |  |
| C=C(CCCO)[C@@H]1CC[C@@](C)(O)[C@H]1C | > 100 |  | > 100 | > 100 | > 100 | > 100 | > 100 | > 100 |  |  |  |  |  |  |  |  |  |  |  |  |

From PubChem BioAssay (NCI)
